pIC50: −log10 of the molar value.
Test system: 695427-040-R-J1-PDC complex spheroid viability
Experiment: Anticancer human tumor 695427-040-R-J1-PDC patient-derived colon adenocarcinoma cell line growth inhibition [POLQ]
Conditions: for pIC50: curve of first compound; for viability, T/C: stronger effect = lower value
Method in brief: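 Patient-derived tumour cells were co-cultured with HUVEC and mesenchymal stem cells as multicellular spheroids at 37 °C. They were treated with POLQ inhibitors (novobiocin, ART-558, RP6685) alone or combined with other agents. Top concentrations were at or near clinical Cmax (otherwise 10 microM; SN-38 at 1 microM), decreasing in half-log steps.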

[1] = second compound 0.0316 µM, first compound 0.0316 µM
[2] = second compound 0.0316 µM, first compound 0.1 µM
[3] = second compound 0.0316 µM, first compound 0.316 µM
[4] = second compound 0.0316 µM, first compound 1 µM
[5] = second compound 0.0316 µM, first compound 3.16 µM
[6] = second compound 0.0316 µM, first compound 10 µM
[7] = second compound 0.1 µM, first compound 0.0316 µM
[8] = second compound 0.1 µM, first compound 0.1 µM
[9] = second compound 0.1 µM, first compound 0.316 µM
[10] = second compound 0.1 µM, first compound 1 µM
[11] = second compound 0.1 µM, first compound 3.16 µM
[12] = second compound 0.1 µM, first compound 10 µM
[13] = second compound 0.316 µM, first compound 0.0316 µM
[14] = second compound 0.316 µM, first compound 0.1 µM
[15] = second compound 0.316 µM, first compound 0.316 µM
[16] = second compound 0.316 µM, first compound 1 µM
[17] = second compound 0.316 µM, first compound 3.16 µM
[18] = second compound 0.316 µM, first compound 10 µM
[19] = second compound 1 µM, first compound 0.0316 µM
[20] = second compound 1 µM, first compound 0.1 µM
[21] = second compound 1 µM, first compound 0.316 µM
[22] = second compound 1 µM, first compound 1 µM
[23] = second compound 1 µM, first compound 3.16 µM
[24] = second compound 1 µM, first compound 10 µM
[25] = second compound 3.16 µM, first compound 0.0316 µM
[26] = second compound 3.16 µM, first compound 0.1 µM
[27] = second compound 3.16 µM, first compound 0.316 µM
[28] = second compound 3.16 µM, first compound 1 µM
[29] = second compound 3.16 µM, first compound 3.16 µM
[30] = second compound 3.16 µM, first compound 10 µM
[31] = second compound 10 µM, first compound 0.0316 µM
[32] = second compound 10 µM, first compound 0.1 µM
[33] = second compound 10 µM, first compound 0.316 µM
[34] = second compound 10 µM, first compound 1 µM
[35] = second compound 10 µM, first compound 3.16 µM
[36] = second compound 10 µM, first compound 10 µM
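Note: spheroids exposed to compounds for seven days.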
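Throughout, for viability, T/C: 100% = DMSO vehicle control viability.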

Structure (SMILES): O=C(Nc1ccc(O)c(NS(=O)(=O)c2ccc(F)cc2)c1)c1ccc(-c2ccccc2)cc1 + COC1C(OC(N)=O)C(O)C(Oc2ccc3c(O)c(NC(=O)c4ccc(O)c(CC=C(C)C)c4)c(=O)oc3c2C)OC1(C)C
- pIC50 (second compound 0.0316 µM): < 5.00
- pIC50 (second compound 0.1 µM): < 5.00
- pIC50 (second compound 0.316 µM): < 5.00
- pIC50 (second compound 1 µM): < 5.00
- pIC50 (second compound 3.16 µM): < 5.00
- pIC50 (second compound 10 µM): < 5.00
- viability, T/C [1]: 104%
- viability, T/C [2]: 97.7%
- viability, T/C [3]: 105%
- viability, T/C [4]: 103%
- viability, T/C [5]: 103%
- viability, T/C [6]: 89.3%
- viability, T/C [7]: 116%
- viability, T/C [8]: 99.9%
- viability, T/C [9]: 106%
- viability, T/C [10]: 102%
- viability, T/C [11]: 103%
- viability, T/C [12]: 95.8%
- viability, T/C [13]: 103%
- viability, T/C [14]: 103%
- viability, T/C [15]: 110%
- viability, T/C [16]: 105%
- viability, T/C [17]: 104%
- viability, T/C [18]: 104%
- viability, T/C [19]: 110%
- viability, T/C [20]: 107%
- viability, T/C [21]: 107%
- viability, T/C [22]: 106%
- viability, T/C [23]: 108%
- viability, T/C [24]: 90.8%
- viability, T/C [25]: 108%
- viability, T/C [26]: 101%
- viability, T/C [27]: 102%
- viability, T/C [28]: 110%
- viability, T/C [29]: 115%
- viability, T/C [30]: 89.7%
- viability, T/C [31]: 104%
- viability, T/C [32]: 100%
- viability, T/C [33]: 112%
- viability, T/C [34]: 105%
- viability, T/C [35]: 114%
- viability, T/C [36]: 88.3%

Structure (SMILES): CC(=O)O[C@H]1C(=O)[C@@]2(C)[C@H]([C@H](OC(=O)c3ccccc3)[C@]3(O)C[C@H](OC(=O)[C@H](O)[C@@H](NC(=O)c4ccccc4)c4ccccc4)C(C)=C1C3(C)C)[C@]1(OC(C)=O)CO[C@@H]1C[C@@H]2O + Cc1cccc(N(C)C(=O)C2C(O)CCN2c2nc(C)cc(C(F)(F)F)c2C#N)c1
- pIC50 (second compound 0.0316 µM): < 5.52
- pIC50 (second compound 0.1 µM): < 5.52
- pIC50 (second compound 0.316 µM): < 5.52
- pIC50 (second compound 1 µM): < 5.52
- pIC50 (second compound 3.16 µM): < 5.52
- pIC50 (second compound 10 µM): < 5.52
- viability, T/C (second compound 0.0316 µM, first compound 0.00949 µM): 96.5%
- viability, T/C (second compound 0.0316 µM, first compound 0.03 µM): 102%
- viability, T/C (second compound 0.0316 µM, first compound 0.0949 µM): 96.3%
- viability, T/C (second compound 0.0316 µM, first compound 0.3 µM): 98.9%
- viability, T/C (second compound 0.0316 µM, first compound 0.949 µM): 94.7%
- viability, T/C (second compound 0.0316 µM, first compound 3 µM): 77.9%
- viability, T/C (second compound 0.1 µM, first compound 0.00949 µM): 112%
- viability, T/C (second compound 0.1 µM, first compound 0.03 µM): 106%
- viability, T/C (second compound 0.1 µM, first compound 0.0949 µM): 91.8%
- viability, T/C (second compound 0.1 µM, first compound 0.3 µM): 95.3%
- viability, T/C (second compound 0.1 µM, first compound 0.949 µM): 98.3%
- viability, T/C (second compound 0.1 µM, first compound 3 µM): 79.7%
- viability, T/C (second compound 0.316 µM, first compound 0.00949 µM): 111%
- viability, T/C (second compound 0.316 µM, first compound 0.03 µM): 94.8%
- viability, T/C (second compound 0.316 µM, first compound 0.0949 µM): 95%
- viability, T/C (second compound 0.316 µM, first compound 0.3 µM): 89.5%
- viability, T/C (second compound 0.316 µM, first compound 0.949 µM): 104%
- viability, T/C (second compound 0.316 µM, first compound 3 µM): 78.7%
- viability, T/C (second compound 1 µM, first compound 0.00949 µM): 102%
- viability, T/C (second compound 1 µM, first compound 0.03 µM): 93.3%
- viability, T/C (second compound 1 µM, first compound 0.0949 µM): 91.9%
- viability, T/C (second compound 1 µM, first compound 0.3 µM): 98.3%
- viability, T/C (second compound 1 µM, first compound 0.949 µM): 101%
- viability, T/C (second compound 1 µM, first compound 3 µM): 73.1%
- viability, T/C (second compound 3.16 µM, first compound 0.00949 µM): 97.4%
- viability, T/C (second compound 3.16 µM, first compound 0.03 µM): 94.2%
- viability, T/C (second compound 3.16 µM, first compound 0.0949 µM): 91.8%
- viability, T/C (second compound 3.16 µM, first compound 0.3 µM): 88.8%
- viability, T/C (second compound 3.16 µM, first compound 0.949 µM): 97%
- viability, T/C (second compound 3.16 µM, first compound 3 µM): 80.6%
- viability, T/C (second compound 10 µM, first compound 0.00949 µM): 91.3%
- viability, T/C (second compound 10 µM, first compound 0.03 µM): 83.9%
- viability, T/C (second compound 10 µM, first compound 0.0949 µM): 87.9%
- viability, T/C (second compound 10 µM, first compound 0.3 µM): 85.1%
- viability, T/C (second compound 10 µM, first compound 0.949 µM): 94.8%
- viability, T/C (second compound 10 µM, first compound 3 µM): 84.2%

Structure (SMILES): COc1cccc2c1C(=O)c1c(O)c3c(c(O)c1C2=O)CC(O)(C(=O)CO)CC3OC1CC(N)C(O)C(C)O1 (stereo unspecified) + Cc1cccc(N(C)C(=O)C2C(O)CCN2c2nc(C)cc(C(F)(F)F)c2C#N)c1
- pIC50 (second compound 0.0316 µM): < 5.00
- pIC50 (second compound 0.1 µM): < 5.00
- pIC50 (second compound 0.316 µM): < 5.00
- pIC50 (second compound 1 µM): < 5.00
- pIC50 (second compound 3.16 µM): 5.07
- pIC50 (second compound 10 µM): 5.36
- viability, T/C [1]: 97.7%
- viability, T/C [2]: 96.5%
- viability, T/C [3]: 89.7%
- viability, T/C [4]: 75.1%
- viability, T/C [5]: 67.7%
- viability, T/C [6]: 51%
- viability, T/C [7]: 105%
- viability, T/C [8]: 88.3%
- viability, T/C [9]: 95.6%
- viability, T/C [10]: 69%
- viability, T/C [11]: 66.4%
- viability, T/C [12]: 55.9%
- viability, T/C [13]: 103%
- viability, T/C [14]: 91.8%
- viability, T/C [15]: 89.1%
- viability, T/C [16]: 72.1%
- viability, T/C [17]: 78.6%
- viability, T/C [18]: 55.7%
- viability, T/C [19]: 97.5%
- viability, T/C [20]: 83.1%
- viability, T/C [21]: 87.3%
- viability, T/C [22]: 75.2%
- viability, T/C [23]: 67.5%
- viability, T/C [24]: 53.9%
- viability, T/C [25]: 96.6%
- viability, T/C [26]: 87.9%
- viability, T/C [27]: 83.3%
- viability, T/C [28]: 75.7%
- viability, T/C [29]: 64.9%
- viability, T/C [30]: 46.8%
- viability, T/C [31]: 81.6%
- viability, T/C [32]: 78.9%
- viability, T/C [33]: 73.3%
- viability, T/C [34]: 57.7%
- viability, T/C [35]: 56.4%
- viability, T/C [36]: 41.8%
